Assay results from ChEMBL document CHEMBL4414582, “Lathyrane, Premyrsinane, and Related Diterpenes from Euphorbia boetica: Effect on in Vitro Neural Progenitor Cell Proliferation” (J Nat Prod, 2019).
The source made the active and inactive calls. No cut-off for these calls is given here.

How the values were obtained:
Mus musculus [1] = species: Mus musculus; assay: Activation of PKC in mouse neurospheres derived neural precursor cells assessed as increase in cell proliferation by measuring increase in neurosphere size at 5 to 10 uM after 72 hrs in presence of EGF and bFGF by phase contrast microscopic based analysis
Mus musculus [2] = species: Mus musculus; assay: Activation of PKC in mouse neurospheres derived neural precursor cells assessed as cell proliferation by measuring neurosphere size at 1 uM after 72 hrs in presence of EGF and bFGF by phase contrast microscopic based analysis
Mus musculus [3] = species: Mus musculus; assay: Activation of PKC in mouse neurospheres derived neural precursor cells assessed as cell proliferation by measuring neurosphere size at 1 to 10 uM after 72 hrs in presence of EGF by phase contrast microscopic based analysis
[4] = Effect on self-renewal capacity in mouse neurospheres derived neural precursor cells assessed as neurosphere number at 1 to 10 uM after 72 hrs in presence of bFGF by phase contrast microscopic based analysis; format: ADME
Mus musculus [5] = species: Mus musculus; assay: Activation of PKC in mouse neurospheres derived neural precursor cells assessed as increase in cell proliferation by measuring increase in neurosphere size after 72 hrs in presence of EGF and bFGF by phase contrast microscopic based analysis
[6] = Effect on self renewal capacity in mouse neurospheres derived neural precursor cells assessed as neurosphere number at 1 to 10 uM after 72 hrs in presence of EGF and bFGF by phase contrast microscopic based analysis; format: ADME
[7] = Effect on self-renewal capacity in mouse neurospheres derived neural precursor cells assessed as neurosphere number at 1 to 10 uM after 72 hrs in presence of EGF by phase contrast microscopic based analysis; format: ADME
[8] = Effect on cell viability in mouse neurospheres derived neural precursor cells assessed as neurosphere number at 1 to 10 uM after 72 hrs in presence of bFGF and EGF by phase contrast microscopic based analysis
[9] = Effect on cell viability in mouse neurospheres derived neural precursor cells assessed as neurosphere number at 1 to 10 uM after 72 hrs in presence of bFGF by phase contrast microscopic based analysis
Mus musculus [10] = species: Mus musculus; assay: Activation of PKC in mouse neurospheres derived neural precursor cells assessed as cell proliferation by measuring neurosphere size at 1 to 10 uM after 72 hrs in presence of bFGF by phase contrast microscopic based analysis
[11] = Effect on cell viability in mouse neurospheres derived neural precursor cells assessed as neurosphere number at 1 to 10 uM after 72 hrs in presence of EGF by phase contrast microscopic based analysis
Mus musculus [12] = species: Mus musculus; assay: Activation of PKC in mouse neurospheres derived neural precursor cells assessed as increase in cell proliferation by measuring increase in neurosphere area at 5 uM after 72 hrs in presence of EGF and bFGF by phase contrast microscopic based analysis

Compound | Activity (Mus musculus [1]) | Activity (Mus musculus [2]) | Activity (Mus musculus [3]) | Activity [4] | Activity (Mus musculus [5]) | Activity [6] | Activity [7] | Activity [8] | Activity [9] | Activity (Mus musculus [10]) | Activity [11] | Activity (Mus musculus [12])
CC(=O)O[C@@H]1[C@@H]2[C@@H](OC(C)=O)[C@]3(CC[C@H]4[C@@H](/C=C(\C)C(=O)[C@@]2(OC(C)=O)C[C@@H]1C)C4(C)C)CO3 | Active | inactive | inactive | Non-Toxic | Dose-dependent effect | Non-Toxic | Non-Toxic | Non-Toxic | Non-Toxic | inactive | Non-Toxic | 
C=C1CC[C@H]2[C@@H](/C=C(\C)C(=O)[C@@]3(OC(C)=O)C[C@H](C)[C@H](OC(C)=O)[C@@H]3[C@H]1OC(C)=O)C2(C)C |  |  |  | Non-Toxic |  | Non-Toxic | Non-Toxic | Non-Toxic | Non-Toxic |  | Non-Toxic | Active
